According to patent US20020106657A1, “Genetic test to determine non-responsiveness to statin drug treatment” (priority 1999, published 2002):
Where “and” joins values, the source holds several entries; their conditions need not be identical. Equal values may be shown once. Read-outs that look alike come from different tables or passages of the source.

Tests used:
[1] = tested on: CABG patients (saphenous-vein coronary-artery bypass grafts); settings: cited from earlier work; for percentage of subjects with worsening of one or more grafts: 1351 subjects, average 4.3 years
[2] = tested on: CABG patients; assay: Post-CABG Trial: serum lipid levels and lovastatin dose needed, by treatment group or LPL HindIII genotype; type: in vivo, human
Description: (§1) Participants were randomly assigned, following a two by two design, to receive 1) lovastatin therapy to lower the LDL-cholesterol level to within the range of 93-97 mg/dl (aggressive treatment group) or 132-136 mg/dl (moderate treatment group), and 2) placebo or low-dose warfarin (Post-CABG, 1997). Coronary angiograms of 1351 subjects at enrollment and an average of 4.3 years later were compared using a quantitative assessment of the severity of graft stenosis. Graft worsening was defined as a decrease in lumen diameter of 0.6mm or more. The percentage of subjects with worsening of one or more grafts was 39% in the aggressive treatment group compared to 51% in the moderate treatment group (p<0.00 1) and the mean percentage of grafts per patient showing worsening was 27% in the aggressive treatment group compared to 39% in the moderate treatment group (p<0.001).
(§2) A total of 1351 subjects from seven clinical centers throughout North America were included in the clinical trial and all were eligible as participants. Genetic material was received from 891 subjects who were included in this ancillary study. Inclusion criteria for the clinical trial were: bypass surgery 1 -11 years prior to the study; an LDL-cholesterol level of 130-175 mg/dl; and at least one patent vein graft as determined by angiography. Subjects were excluded if there was: (a) the likelihood of revascularization or death within the study period of 5 years; (b) unstable angina or myocardial infarction within six months before the start of the trial; (c) severe angina; (d) heart failure; or (e) contraindications to the study medications. Id. Subjects were randomly assigned in a two by two factorial design for treatment to lower LDL-cholesterol levels aggressively (target LDL 93-97 mg/dl) or moderately (target LDL 132-136 mg/dl) with lovastatin and cholestyramine if needed, and for treatment with either placebo or warfarin sufficient to maintain an international normalized ratio of less than 2. Id. Graft worsening was determined by comparing the initial angiogram at enrollment with a follow-up angiogram repeated an average of 4.3 years later. “Worsening” was defined as a reduction in diameter ≧0.6mm in diameter. “Subjects with worsening” were defined as those subjects with one or more grafts showing worsening.
(§3) Differences in baseline characteristics between treatment groups and between genotype groups were tested by one-way analysis of variance or Chi-square tests. Log-transformed HDL and TG values were used to perform all statistical analyses in order to adjust for their skewed distributions, but are presented in the tables as untransformed means ±SE. The association between graft worsening and LPL genotype was tested by Chi-square test. Mantel-Haenszel statistics were used for testing the interactions between genotypes and treatment groups. The proportion of grafts showing worsening per subject was used as the quantitative measurement of graft worsening, and multiple regression was performed to for this proportion as a function of genotype and treatment group to identify predictors. Adjusted variables for this trait included age, gender, body mass index, smoking status, number of years since CABG, systolic and diastolic blood pressure, current medicine use, and family history as listed in Table 1. All statistical analyses were carried out with SAS software (version 6.12, SAS Institute, Cary, N.C.).
To investigate potential mechanisms for the association between the LPL HindIII 2/2 genotype and graft worsening, baseline characteristics and response of the subjects to the lipid-lowering action of lovastatin were compared between subjects (Table 3). There were no differences observed between the baseline values for total cholesterol, HDL-cholesterol, and triglycerides. However, a small difference in LDL-cholesterol was observed, 159.6±2.1 mg/dl for subjects with HindIII 2/2 compared with 155.0±0.7 for 1/1 and 1/2, p=0.04. […]

[3] = tested on: CABG patients (saphenous-vein coronary-artery bypass grafts); assay: Post-CABG Trial: angiographic graft worsening under lovastatin (aggressive vs moderate) and warfarin; type: in vivo, human
Description: A genetic association study was conducted by a within-case comparison ancillary to the Post Coronary Artery Bypass Graft Trial. (The Post Coronary Artery Bypass Graft Trial Investigators. The effect of aggressive lowering of low-density lipoprotein cholesterol levels and low-dose anticoagulation on obstructive changes in saphenous-vein coronary-artery bypass grafts, N. Engl. J. Med. 336:153-62 [1997]). A two stage design was followed. First, EBV-transformed lymphoblastoid cell lines were established for subjects from the Los Angeles (L.A.) cohort providing a permanent source of DNA for testing hypotheses related to atherosclerosis-related candidate genes. Then, significant results were tested in a second stage by genotyping all available subjects in the post-CABG trial using DNA isolated from whole blood shipped to Cedars-Sinai Medical Center from the other participating centers.
as §1, §2
as §3, with “Adjusted variables for this trait included age, gender, body mass index, smoking status, number of years since CABG, systolic and diastolic blood pressure, current medicine use, and family history as listed in Table 1. All statistical analyses were carried out with SAS software (version 6.12, SAS Institute, Cary, N.C.).” left out

[4] = Aggressive treatment group (N = 430), mean ± SE
[5] = LPL HindIII 1/1 & 1/2 genotype (N = 817)
[6] = LPL HindIII 2/2 genotype (N = 74)
[7] = Moderate treatment group (N = 406), mean ± SE

CC(=O)CC(c1ccccc1)c1c(O)c2ccccc2oc1=O (stereo not drawn) [warfarin]
effect of the warfarin treatment on graft worsening ([1]; low-dose warfarin vs placebo): No effect

CC[C@H](C)C(=O)O[C@H]1C[C@@H](C)C=C2C=C[C@H](C)[C@H](CC[C@@H]3C[C@@H](O)CC(=O)O3)[C@H]21 [lovastatin]
Steady state lipid levels: HDL cholesterol [2, 4]: 44.9 ± 0.6 mg/dL
Steady state lipid levels: LDL cholesterol [2, 4]: 97.1 ± 1.3 mg/dL
Steady state lipid levels: Total cholesterol [2, 4]: 172.6 ± 1.6 mg/dL
Steady state lipid levels: Triglycerides [2, 4]: 157.4 ± 4.5 mg/dL
Lipid change: HDL cholesterol [2, 5]: 14.2 ± 1.0%
Lipid change: LDL cholesterol [2, 5]: 45.1 ± 1.5%
Lipid change: Total cholesterol [2, 5]: 15.2 ± 0.6%
Lipid change: Triglycerides [2, 5]: 8.2 ± 2.0%
Steady state lipid levels: HDL cholesterol [2, 5]: 44.1 ± 0.4 mg/dL
Steady state lipid levels: LDL cholesterol [2, 5]: 114.7 ± 1.1 mg/dL
Steady state lipid levels: Total cholesterol [2, 5]: 191.0 ± 1.3 mg/dL
Steady state lipid levels: Triglycerides [2, 5]: 163.6 ± 3.4 mg/dL
Lipid change: HDL cholesterol [2, 6]: 14.1 ± 3.1%
Lipid change: LDL cholesterol [2, 6]: 53.5 ± 6.9%
Lipid change: Total cholesterol [2, 6]: 16.9 ± 2.0%
Lipid change: Triglycerides [2, 6]: 6.0 ± 5.8%
Steady state lipid levels: HDL cholesterol [2, 6]: 46.7 ± 1.6 mg/dL
Steady state lipid levels: LDL cholesterol [2, 6]: 115.1 ± 4.3 mg/dL
Steady state lipid levels: Total cholesterol [2, 6]: 191.1 ± 4.8 mg/dL
Steady state lipid levels: Triglycerides [2, 6]: 151.0 ± 9.6 mg/dL
Steady state lipid levels: HDL cholesterol [2, 7]: 43.7 ± 0.6 mg/dL
Steady state lipid levels: LDL cholesterol [2, 7]: 133.0 ± 1.3 mg/dL
Steady state lipid levels: Total cholesterol [2, 7]: 209.5 ± 1.6 mg/dL
Steady state lipid levels: Triglycerides [2, 7]: 164.5 ± 4.4 mg/dL
percentage of patients with atherosclerotic worsening of grafts within 4 years ([1]; aggressive lovastatin treatment (LDL-C lowered to 93-97 mg/dl)): 39%
percentage of subjects with worsening of one or more grafts ([1]; aggressive treatment group, worsening = lumen diameter decrease 0.6 mm or more): 39%
mean percentage of grafts per patient showing worsening ([1]; aggressive treatment group): 27%
number of patients who required a second CABG procedure, lower than in moderate-treatment group ([1]; aggressive vs moderate lovastatin treatment group): 29%
percentage of patients with atherosclerotic worsening of grafts within 4 years ([1]; moderate lovastatin treatment (LDL-C lowered to 132-136 mg/dl)): 51%
percentage of subjects with worsening of one or more grafts ([1]; moderate treatment group): 51%
mean percentage of grafts per patient showing worsening ([1]; moderate treatment group): 39%
percent of subjects with graft worsening ([3]; HindIII 1/1 and 1/2 genotype, moderate drug treatment group): 49%
percent of subjects with graft worsening ([3]; HindIII 1/1 or 1/2 genotype, aggressive lipid-lowering treatment group): 35%
percent of subjects with graft worsening ([3]; HindIII 2/2 genotype, aggressive treatment group): 54%
percent of subjects with graft worsening ([3]; HindIII 2/2 genotype, moderate lipid-lowering treatment group): 65%
odds ratio for graft worsening, combined unfavorable LPL HindIII genotype with moderate drug treatment ([3]; HindIII 2/2 plus moderate lipid-lowering, 95% CI 1.4-8.7): 3.5
odds ratio, effect of treatment on graft worsening ([3]; adjusted for / stratified by LPL HindIII genotype, 95% CI 1.32-2.4): 1.78 and 1.8
odds ratio for graft worsening, moderate vs aggressive drug treatment ([3]; within LPL HindIII 1/1 and 1/2 genotype group, 95% CI 1.3 to 2.4): 1.8
